The values below come from ChEMBL document CHEMBL4619795, “Establishing the Structure-Activity Relationship of Daptomycin” (ACS Med Chem Lett, 2020).

Data set [1] concerns Staphylococcus aureus. Put plainly: Antibacterial activity against Staphylococcus aureus ATCC 29213 assessed as decrease in mutation prevention concentration measured after 72 hrs. In kind it is functional, organism-based.
The subject of data set [2] is Staphylococcus aureus. Put plainly: Bactericidal activity against Staphylococcus aureus 86 assessed as reduction in colony formation at 8 ug/ml measured at 24 hrs by time-killing assay. In kind it is functional, organism-based.
Data set [3] deals with Enterococcus faecalis. The data set is described as follows: Antibacterial activity against Streptococcus faecalis assessed as bacterial growth inhibition in presence of 50 ug/ml calcium ions by CLSI protocol based broth microdilution method. In kind it is functional.
For data set [4], the system named is Enterococcus. Put plainly: Antibacterial activity against Enterococcus 60 assessed as bacterial growth inhibition in presence of 50 ug/ml calcium ions by CLSI protocol based broth microdilution method. In kind it is functional.
Data set [5] concerns Enterococcus faecalis. The data set is described as follows: Antibacterial activity against Enterococcus faecalis ATCC 29212 assessed as bacterial growth inhibition in presence of 50 ug/ml calcium ions by CLSI protocol based broth microdilution method. It is filed as functional. Background: In broth dilution the organism is exposed to a series of concentrations in liquid medium.

Data set [6] has as its system Staphylococcus aureus. The data set is described as follows: Antibacterial activity against Staphylococcus aureus ATCC 29213 assessed as bacterial growth inhibition in presence of 50 ug/ml calcium ions by CLSI protocol based broth microdilution method. In kind it is functional.
Data set [7] deals with Staphylococcus aureus. The data set is described as follows: Antibacterial activity against methicillin-resistant Staphylococcus aureus 11 assessed as bacterial growth inhibition in presence of 50 ug/ml calcium ions by CLSI protocol based broth microdilution method. It is filed as functional.
Data set [8] deals with Staphylococcus aureus. The data set is described as follows: Antibacterial activity against methicillin-resistant Staphylococcus aureus 86 assessed as bacterial growth inhibition in presence of 50 ug/ml calcium ions by CLSI protocol based broth microdilution method. In kind it is functional.
Data set [9] concerns Lipid bilayer. Put plainly: Binding affinity to POPC/POPG (1:1) large unilamellar vesicles assessed as change in ellipticity […] at 50 uM in presence of phosphatidylglycerol and Ca2+ ions by circular dichroism spectroscopy.
Data set [10] has as its system Staphylococcus aureus. The data set is described as follows: Antibacterial activity against methicillin-resistant Staphylococcus aureus 14 assessed as bacterial growth inhibition in presence of 50 ug/ml calcium ions by CLSI protocol based broth microdilution method. In kind it is functional.
Data set [11] concerns Enterococcus. The data set is described as follows: Antibacterial activity against Enterococcus 6 assessed as bacterial growth inhibition in presence of 50 ug/ml calcium ions by CLSI protocol based broth microdilution method. In kind it is functional.
The subject of data set [12] is Staphylococcus aureus. Put plainly: Antibacterial activity against methicillin-resistant Staphylococcus aureus 88 assessed as bacterial growth inhibition in presence of 50 ug/ml calcium ions by CLSI protocol based broth microdilution method. It is filed as functional.
For data set [13], the system named is Lipid bilayer. The data set is described as follows: Binding affinity to POPC large unilamellar vesicles assessed as change in ellipticity […] at 50 uM in presence of phosphatidylglycerol and Ca2+ ions by circular dichroism spectroscopy. For orientation: Circular dichroism is widely used to follow secondary structure.
In data set [14] the test system is Lipid bilayer. Put plainly: Binding affinity to POPC/POPG (1:1) large unilamellar vesicles assessed as close proximity of tryptophan and kynurenine residues at 50 uM in presence of phosphatidylglycerol and Ca2+ ions by circular dichroism spectroscopy.
Data set [15] in a line: Toxicity in Galleria mellonella larvae infected with Staphylococcus aureus ATCC 43300 assessed as larvae death at 50 mg/kg measured at 36 hrs post-infection. It is filed as organism-based. As to conditions: in vivo.
The test system of data set [16] is Lipid bilayer. Put plainly: Binding affinity to POPC large unilamellar vesicles assessed as close proximity of tryptophan and kynurenine residues at 50 uM in presence of phosphatidylglycerol and Ca2+ ions by circular dichroism spectroscopy.
Data set [17] concerns Lipid bilayer. Put plainly: Binding affinity to POPC large unilamellar vesicles assessed as conformational changes at 50 uM in presence of phosphatidylglycerol and Ca2+ ions by circular dichroism spectroscopy.
Data set [18] deals with Staphylococcus aureus. Put plainly: Antibacterial activity against Staphylococcus aureus ATCC 43300 infected in Galleria mellonella larvae assessed as increase in larvae survival at 50 mg/kg measured up to 48 hrs post-infection. It is filed as functional, organism-based.
The subject of data set [19] is Lipid bilayer. The data set is described as follows: Binding affinity to POPC/POPG (1:1) large unilamellar vesicles assessed as conformational changes at 50 uM in presence of phosphatidylglycerol and Ca2+ ions by circular dichroism spectroscopy.

Calls of active or inactive are those of the source. The rule behind the calls is not given here.

As to `CCCCCCCCCC(=O)N[C@@H](Cc1cn(C)c2ccccc12)C(=O)N[C@@H](CC(N)=O)C(=O)N[C@@H](CC(=O)O)C(=O)N[C@@H]1C(=O)NCC(=O)N[C@@H](CCCN)C(=O)N[C@@H](CC(=O)O)C(=O)N[C@H](C)C(=O)N[C@@H](CC(=O)O)C(=O)NCC(=O)N[C@H](CO)C(=O)N[C@@H]([C@@H](C)CC(=O)O)C(=O)N[C@@H](CC(=O)c2ccccc2N)C(=O)O[C@@H]1C`, the outcome in [1] and in data set [2] was Active.

Turning to `CCCCCCCCCC(=O)N[C@@H](Cc1c[nH]c2ccccc12)C(=O)N[C@@H](CC(N)=O)C(=O)N[C@@H](CC(=O)O)C(=O)N[C@@H]1C(=O)NCC(=O)N[C@@H](CCCN)C(=O)N[C@@H](CC(=O)O)C(=O)N[C@H](C)C(=O)N[C@@H](CCC(=O)O)C(=O)NCC(=O)N[C@H](CO)C(=O)N[C@@H]([C@@H](C)CC(=O)O)C(=O)N[C@@H](CC(=O)c2ccccc2N)C(=O)O[C@@H]1C`, the MIC in data set [3], in [4], in data set [5], in data set [6], in data set [7] and in [8] was at least 32 mg/L each time. The MIC in data set [10], in data set [11] and in [12] was at least 32 mg/L throughout. Further, the result in data set [9] and in data set [13] was Active.

For `CCCCCCCCCC(=O)N[C@@H](Cc1cccc2ccccc12)C(=O)N[C@@H](CC(N)=O)C(=O)N[C@@H](CC(=O)O)C(=O)N[C@@H]1C(=O)NCC(=O)N[C@@H](CCCN)C(=O)N[C@@H](CC(=O)O)C(=O)N[C@H](C)C(=O)N[C@@H](CC(=O)O)C(=O)NCC(=O)N[C@H](CO)C(=O)N[C@@H]([C@@H](C)CC(=O)O)C(=O)N[C@@H](CC(=O)c2ccccc2N)C(=O)O[C@@H]1C`, the MIC in data set [3] is 0.5 mg/L; in data set [4], 2 mg/L; in data set [5], 2 mg/L; in [6] it was 0.25 mg/L; in data set [7], 1 mg/L; in data set [8] it was 0.25 mg/L. Besides, the results for the MIC in data set [10], in [11] and in data set [12] were 0.25 mg/L, 2 mg/L and 0.125 mg/L, respectively.

For `CCCCCCCCCC(=O)N[C@@H](Cc1c[nH]c2ccccc12)C(=O)N[C@@H](CC(N)=O)C(=O)N[C@@H](CC(=O)O)C(=O)N[C@@H]1C(=O)NCC(=O)N[C@@H](CC(N)=O)C(=O)N[C@@H](CC(=O)O)C(=O)N[C@H](C)C(=O)N[C@@H](CC(=O)O)C(=O)NCC(=O)N[C@H](CO)C(=O)N[C@@H]([C@@H](C)CC(=O)O)C(=O)N[C@@H](CC(=O)c2ccccc2N)C(=O)O[C@@H]1C`, the MIC in [3], in data set [4], in data set [5], in [6], in [7] and in [8] was at least 32 mg/L in each case. Moreover, the MIC in [10], in data set [11] and in data set [12] was at least 32 mg/L each time.

In the case of `CCCCCCCCCC(=O)N[C@@H](Cc1c[nH]c2ccccc12)C(=O)N[C@@H](CC(N)=O)C(=O)N[C@@H](CC(=O)O)C(=O)N[C@@H]1C(=O)NCC(=O)N[C@@H](CCCN)C(=O)N[C@@H](CC(=O)O)C(=O)N[C@@H](C)C(=O)N[C@@H](CC(=O)O)C(=O)NCC(=O)N[C@H](CO)C(=O)N[C@@H]([C@@H](C)CC(=O)O)C(=O)N[C@@H](CC(=O)c2ccccc2N)C(=O)O[C@@H]1C`, the MIC in data set [3], in [4], in [5], in [6], in data set [7] and in data set [8] was at least 64 mg/L throughout. Also, the MIC in [10], in data set [11] and in data set [12] was at least 64 mg/L in each case.

Regarding `CCCCCCCCCC(=O)N[C@@H](Cc1c[nH]c2ccccc12)C(=O)N[C@@H](CC(N)=O)C(=O)N[C@@H](CC(=O)O)C(=O)N[C@@H]1C(=O)NCC(=O)N[C@@H](CCCN)C(=O)N[C@@H](CC(N)=O)C(=O)N[C@H](C)C(=O)N[C@@H](CC(N)=O)C(=O)NCC(=O)N[C@H](CO)C(=O)N[C@@H]([C@@H](C)CC(=O)O)C(=O)N[C@@H](CC(=O)c2ccccc2N)C(=O)O[C@@H]1C`, the MIC in [3], in data set [4], in data set [5], in [6], in data set [7] and in data set [8] was at least 32 mg/L throughout. The MIC in data set [10], in data set [11] and in [12] was at least 32 mg/L each time. For the same compound, the result in [9] and in [13] was Active.

In the case of `CCCCCCCCCC(=O)N[C@@H](Cc1c[nH]c2ccccc12)C(=O)N[C@@H](CC(N)=O)C(=O)N[C@@H](CC(=O)O)C(=O)N[C@@H]1C(=O)NCC(=O)N[C@@H](CSSC[C@@H]2NC(=O)CNC(=O)[C@@H](NC(=O)[C@H](CC(=O)O)NC(=O)[C@H](CC(N)=O)NC(=O)[C@H](Cc3c[nH]c4ccccc34)NC(=O)CCCCCCCCC)[C@@H](C)OC(=O)[C@H](CC(=O)c3ccccc3N)NC(=O)[C@H]([C@@H](C)CC(=O)O)NC(=O)[C@@H](CO)NC(=O)CNC(=O)[C@H](CC(=O)O)NC(=O)[C@@H](C)NC(=O)[C@H](CC(=O)O)NC2=O)C(=O)N[C@@H](CC(=O)O)C(=O)N[C@H](C)C(=O)N[C@@H](CC(=O)O)C(=O)NCC(=O)N[C@H](CO)C(=O)N[C@@H]([C@@H](C)CC(=O)O)C(=O)N[C@@H](CC(=O)c2ccccc2N)C(=O)O[C@@H]1C`, the MIC worked out at 4 mg/L in data set [3]; 16 mg/L in data set [4]; 16 mg/L in [5]; 16 mg/L in [6]; 8 mg/L in [7]; 8 mg/L in data set [8]. Further, the MIC stood at 4 mg/L in [10], 16 mg/L in data set [11] and 16 mg/L in data set [12].

In the case of `CCCCCCCCCC(=O)N[C@@H](Cc1c[nH]c2ccccc12)C(=O)N[C@@H](CC(N)=O)C(=O)N[C@@H](CC(=O)O)C(=O)N[C@@H]1C(=O)NCC(=O)N[C@@H](CCC(=O)O)C(=O)N[C@@H](CC(=O)O)C(=O)N[C@H](C)C(=O)N[C@@H](CC(=O)O)C(=O)NCC(=O)N[C@H](CO)C(=O)N[C@@H]([C@@H](C)CC(=O)O)C(=O)N[C@@H](CC(=O)c2ccccc2N)C(=O)O[C@@H]1C`, the MIC in data set [3] was at least 32 mg/L; in [4], at least 32 mg/L; in data set [5] it was at least 32 mg/L; in data set [6] it was 16 mg/L; in data set [7], at least 32 mg/L; in data set [8], at least 32 mg/L. In addition, the MIC in data set [10] is at least 32 mg/L; in data set [11], at least 32 mg/L; in data set [12], 16 mg/L.

For the compound `CCCCCCCCCC(=O)N[C@@H](Cc1c[nH]c2ccccc12)C(=O)N[C@H](CC(N)=O)C(=O)N[C@@H](CC(=O)O)C(=O)N[C@@H]1C(=O)NCC(=O)N[C@@H](CCCN)C(=O)N[C@@H](CC(=O)O)C(=O)N[C@H](C)C(=O)N[C@@H](CC(=O)O)C(=O)NCC(=O)N[C@H](CO)C(=O)N[C@@H]([C@H](C)CC(=O)O)C(=O)N[C@@H](CC(=O)c2ccccc2N)C(=O)O[C@@H]1C`, the MIC in [3] was 4 mg/L; in data set [4], 2 mg/L; in data set [5], 4 mg/L; in data set [6], 0.25 mg/L; in data set [7] it was 0.5 mg/L; in data set [8], 0.5 mg/L. Further, the values for the minimum inhibitory concentration (MIC) in data set [10], in data set [11] and in [12] were 0.5 mg/L, 2 mg/L and 0.25 mg/L, respectively. In addition, the outcome in [14], in data set [16], in [17] and in [19] was Active. The Activity result in data set [15] is listed as “Toxic”. Besides, the outcome in data set [18] was inactive.

For orientation: MIC means the lowest concentration that inhibits growth of the organism.
